The values below come from PMC6027359, “NUC041, a Prodrug of the DNA Methytransferase Inhibitor 5-aza-2′,2′-Difluorodeoxycytidine (NUC013), Leads to Tumor Regression in a Model of Non-Small Cell Lung Cancer” (Pharmaceuticals, 2018).

For one data set, the system named is NSCLC NCI-H460. The data set can be described thus: GI50 in NSCLC NCI-H460 cells (CellTiter-Glo). Format: cell-based, human. As for the experimental part: (§1) As per methods previously presented, cells were grown in an appropriate medium for the cell line of interest. 96 well plates of each cell line were seeded with 5000 cells per well and left overnight. […] Luminescence was recorded on a Synergy 4.0 (BioTek Instruments, Winooski, VT, USA). Assays were performed in triplicate.
In general terms: Cellular ATP, detected with luciferase, serves as a proxy for viable cell number.

The next data set deals with Colon Cancer HCT-116. The data set can be described thus: GI50 in colon cancer HCT-116 cells (CellTiter-Glo). It is filed as cell-based, human. As for the experimental part: as §1
The nature of data set [1]: Pharmacokinetics in mouse whole blood after IV NUC041 in lipid nano-emulsion (LNE). The note with it: analyte in whole blood, NUC041 15 mg/kg IV in LNE vehicle, mice. An excerpt:
As per methods previously presented, the lipid nano-emulsion (Latitude Pharmaceuticals, San Diego, CA, USA) contained an oil phase consisting of an injectable oil and lecithin and an aqueous phase comprising a tonicity adjuster, a stabilizer, and water.

Data set [2] has as its system human colon cancer (LoVo). In words: Mouse xenograft model of human colon cancer (LoVo). It is filed as in vivo, NCr-nu/nu mice. The protocol:
NUC041 in LNE was tested at 30 mg/kg IV for three consecutive days a week for three weeks in a mouse xenograft model of human colon cancer (Lovo) and compared to saline control (SC).
Study initiation began when the required number of mice had tumors of approximately 40 to 75 mm^3. […] Study initiation began when the required number of mice had tumors of approximately 32 to 75 mm^3.
Mice received test article as described in the text. […] Any animal whose weight decreased more than 30% from the weight on the first day of treatment or whose tumor reached 4000 mm^3 in volume, ulcerated, sloughed off, or was moribund was euthanized prior to study termination.

Data set [3] can be described thus: Tolerability studies of NUC041 formulated in PPD. Format: in vivo, mice. As for the experimental part: Administration of 50 µL of PPD vehicle IM led to a weight loss of 10.9% two days following vehicle administration. NUC041 was formulated at a concentration of 60 mg/mL in this vehicle.
Data set [4] deals with human NSCLC NCI-H460. In words: Tumor histology of NCI-H460 xenografts. Format: in vivo, NCr-nu/nu mice. The source says: Approximately half of each tumor was fixed in 10% neutral-buffered formalin and the other half was frozen. The fixed neoplasm was trimmed, processed, embedded, and microtomed (approximately 5 µm sections). Tissue sections were mounted on glass slides, stained with hematoxylin and eosin (H&E), and coverslipped. Slides were submitted to a veterinary pathologist for a histopathologic evaluation.

In data set [5] the test system is human NSCLC NCI-H460. The data set can be described thus: Human NSCLC NCI-H460 xenograft. The note with it: for mean tumor volume at which ulceration developed: SC 2770; for deaths in group / mice that developed tumor ulceration: NCI-H460 xenograft; for deaths in group: n = 10 per group, NUC041: 0.6 mg group; for mice that developed tumor ulceration: NUC041 both PPD groups, evaluable mice, SC 4 of 10; for Median survival: p = NS. For orientation: In xenograft studies the graft and the host belong to different species.
Protocol: Survival refers to animals that were not removed from the study by death or per protocol euthanasia.
Mice with tumors in the proper volume range were arbitrarily assigned to groups. Mice received test article as described in the text. Mice were observed daily for mortality and moribundity with weights and the tumor measurements taken twice weekly. Tumor volume was determined using the formula for an ellipsoid sphere: Length × Width^2/2 = Volume (mm^3). The experiments were scheduled to last 60 days from the day of tumor implant.

Data set [6] is described as follows: Pharmacokinetics in mouse whole blood after IM NUC041 in PEG-phospholipid depot (PPD). The note with it: analyte in whole blood, NUC041 3 mg/mouse IM in PPD, mice.
Protocol: Quantitative determination of NUC013 and NUC041 in quenched mouse whole blood was accomplished using protein precipitation and high-performance liquid chromatography with tandem mass spectrometry detection. Gemcitabine-^13C, ^15N2 “GemC-^13C”, was used as the internal standard. NUC013, NUC041 and GemC-^13C were extracted from 50 µL whole blood using protein precipitation with acetonitrile. Extracts were analyzed by hydrophilic interaction chromatography at 35 °C, using a XBridge™ Amide column (Waters Corp., Milford, MA, USA) under isocratic conditions, with 100 mM ammonium acetate pH 9: ethanol: acetonitrile (25:25:500, v/v/v) as mobile phase A. Column effluents at a constant flow rate of 300 µL/min were analyzed by multiple reaction monitoring (MRM) using a triple quadrupole mass spectrometer in positive-ion mode (AB Sciex 4000 Q Trap, equipped with TurboV IonSpray®) (SCIEX, Framingham, MA, USA).
The calibration curve for each analyte was fitted using weighted (1/x^2) linear regression analysis of the Analyte/IS peak area ratio versus Analyte/IS concentration ratio from 5–5000 ng/mL.
Pharmacokinetic parameters were calculated from mean concentrations of NUC-041 or NUC013 in blood over time for mice using Phoenix® WinNonlin® (Version 6.3; Pharsight, A Certara Company; Cary, NC, USA).
The PEG-phospholipid depot (Latitude Pharmaceuticals, San Diego, CA, USA) comprised of S-100, DSPE-PEG 2000, sesame oil, and alcohol. These four constituents were placed in a vial, warmed to 40 °C until all products dissolved, and the vehicle was then vortexed. Subsequently, the vehicle was filtered through a 0.22 µm syringe filter and NUC041 was added. The formulated product was heated to 40 °C, vortexed, and stored at 2–8 °C.
On the set-up of data set [7]: method as in PMID 28726739. The following applies: mice; cited from earlier work.
The conditions of data set [8]: continuous infusion over seven days, patients with refractory solid tumors; cited from earlier work.
The mark [9] stands for this setting: IM, mice premedicated with dexamethasone 50 µg IP.
Where [10] appears, read: Mice 2-4 (individual), NUC041 0.6 mg/mouse qod, euthanasia day 34.
The mark [11] stands for this setting: Mouse 1, NUC041 2.4/3.0 mg/mouse qwk + dexamethasone, euthanasia day 35.

Values joined by “and” are separate entries in the source; they are usually repeats but may differ in a detail not shown here. Identical values can stand only once. “Also recorded” adds a separate entry of the source. Like-named read-outs stand apart in the source and are kept apart here.

The GI50 is the concentration that inhibits growth by half. As usually defined, the Cmax is the peak of the concentration-time curve. By Vss is commonly meant a proportionality between amount in the body and measured concentration, not a real space. A higher Vss goes with extensive tissue distribution. For orientation: Tmax means the time from dosing to the highest level. The MRT is the average time that molecules of a dose stay in the body. Take “3′,5′-di-trimethylsilyl-2′,2′-difluoro-5-azadeoxycytidine [NUC041]”: the GI50 with NSCLC NCI-H460 (72 h exposure) stood at 1610 nM. In addition, in the data set on Colon Cancer HCT-116 (72 h exposure), the GI50 was determined as 2800 nM. In [1], this compound registered an AUCinf of 590.6 ng·h/mL, an AUClast of 580.4 ng·h/mL, a Cl of 423 mL/min/kg and a Cmax of 2803 ng/mL. In addition, in data set [1], the T1/2 was 11 min and the Vss came to 4.431 L/kg. In addition, the Tmax in [1] (for NUC041 first sampling time) came out at 3 min. Moreover, the “mice with tumor ulcerations, LoVo study” value in data set [2] (NUC041 administered IV in LNE, SC 3/10) is recorded as 2/10. In data set [2] (NUC041 in LNE 30 mg/kg IV), the “efficacy in xenograft model of human colon cancer (LoVo)” value was “only moderate efficacy”. In addition, the “study days on which growth of LoVo was significantly inhibited compared to SC” value in data set [2] (NUC041 in LNE 30 mg/kg IV, three consecutive days a week for three weeks, p < 0.05) was 27–30 study days. Further, the “tolerability of IM injection of 3 mg per mouse” value in [3] (50 µg IP dexamethasone 30 min prior) was “without weight loss or lethality”. For the same compound, the “maximum tolerated dose (MTD)” value in [3] (IM qod, no premedication, mice) stood at 0.6 mg/mouse. In data set [3] (setting [9]), the MTD is > 3 mg/mouse and the “MTD as mean dose” value is > 123.8 mg/kg. Besides, in the data set on human NSCLC NCI-H460 [4] (setting [10]), the “Tumor Volume” value was 3035 mm^3 and 1960 mm^3 and 936 mm^3; the Ulceration entry is listed as “no ulceration; also recorded: ulceration”. Moreover, the “Histopathology: necrosis” value in the data set with human NSCLC NCI-H460 [4] (Mice 2-4 (individual), NUC041 0.6 mg/mouse qod, euthanasia day 34, in ulcerated tumors excludes area of ulceration) was 50–60% necrosis and 10% necrosis * and 5% necrosis *. Moreover, in the data set with human NSCLC NCI-H460 [4] (setting [11]), the “Histopathology: necrosis” value is on record as 30–40% necrosis, the “Tumor Volume” value was found to be 2746 mm^3 and the Ulceration entry was “no ulceration”. Besides, the “mean tumor volume at which ulceration developed” value in the data set with human NSCLC NCI-H460 [5] (0.6 mg NUC041 group, p = 0.0068) came out at 1474 mm^3. Also, the “mean tumor volume at which ulceration developed” value in the data set with human NSCLC NCI-H460 [5] (3 mg NUC041 with dexamethasone group, p = 0.0043) stood at 1319 mm^3. In addition, in the data set with human NSCLC NCI-H460 [5], the deaths in group result is given as “two” and the “mice that developed tumor ulceration” value is reported as 15 of 18. This compound registered a Median survival with human NSCLC NCI-H460 [5] (NUC041 0.6 mg IM qod x 15) of 24.5 days. In the data set on human NSCLC NCI-H460 [5] (NUC041 0.6 mg group, Mice 3 and 4), the peak tumor volume was 3179 mm^3 and 1913 mm^3. In addition, the “regression in tumor volume” value in the data set with human NSCLC NCI-H460 [5] (NUC041 0.6 mg group, two individual mice with ulcerated tumors (Mice 3 and 4), day 25 to 32) is 38% and 51%. Further, the Median survival in the data set with human NSCLC NCI-H460 [5] (NUC041 2.4 mg/mouse IM qwk x 3 then 3.0 mg/mouse qwk x 1 with 50 µg dexamethasone IP) is on record as 25.5 days. For the same compound, the “survival benefit vs SC” value with human NSCLC NCI-H460 [5] (NUC041 in PPD with or without dexamethasone pretreatment) is reported as “no survival benefit”. For the same compound, in data set [6], the AUCinf is 6261 ng·h/mL, the AUClast came out at 6030 ng·h/mL, the Cmax was found to be 4210 ng/mL and the MRT amounted to 156 min. In data set [6], the T1/2 was found to be 102 min, the Tmax amounted to 30 min and the Vz/F worked out at 1.172 L/kg.
On to `Nc1ncn([C@@H]2O[C@H](CO)[C@@H](O)C2(F)F)c(=O)n1` [NUC013, 5-aza-2′,2′-difluorodeoxycytidine], for which, in the data set on NSCLC NCI-H460 (Homo sapiens, NCI-H460, 72 h exposure), the 50% growth inhibitory concentration (GI50) stood at 1570 nM. For the same compound, the GI50 in the data set with Colon Cancer HCT-116 (Homo sapiens, HCT-116, 72 h exposure) was 2580 nM. Moreover, in data set [7], the MTD is reported as > 120 mg/kg. Moreover, in the data set with human NSCLC NCI-H460 [5], the deaths in group result is recorded as “One” and the “mice that developed tumor ulceration” value is recorded as 1 of 10. Further, in the data set on human NSCLC NCI-H460 [5] (NUC013 20 mg/kg IV qd three consecutive days per week x 4, p = 0.0018, Log rank test), the “hazard ratio (HR) vs SC” value came to 0.14.
Take `Nc1ncn([C@H]2C[C@H](O)[C@@H](CO)O2)c(=O)n1` [decitabine]: in data set [8], the MTD was 2 mg/m^2 qd and the “main dose limiting toxicity” value was “neutropenia”.
